Experimental data: BindingDB's records for patent US11547697 (Millennium Pharmaceuticals, 2023)

Legend:
Test in all cases: Inhibition Assay of PI3K
[1] = molecular target: Phosphatidylinositol 4,5-bisphosphate 3-kinase catalytic subunit alpha isoform (Homo sapiens, UniProt P42336)
[2] = molecular target: Phosphatidylinositol 4,5-bisphosphate 3-kinase catalytic subunit beta isoform (Homo sapiens, UniProt P42338)
[3] = molecular target: T1, Phosphatidylinositol 4,5-bisphosphate 3-kinase catalytic subunit delta isoform (Homo sapiens, UniProt O00329)
T1 sequence (O00329 whole entry): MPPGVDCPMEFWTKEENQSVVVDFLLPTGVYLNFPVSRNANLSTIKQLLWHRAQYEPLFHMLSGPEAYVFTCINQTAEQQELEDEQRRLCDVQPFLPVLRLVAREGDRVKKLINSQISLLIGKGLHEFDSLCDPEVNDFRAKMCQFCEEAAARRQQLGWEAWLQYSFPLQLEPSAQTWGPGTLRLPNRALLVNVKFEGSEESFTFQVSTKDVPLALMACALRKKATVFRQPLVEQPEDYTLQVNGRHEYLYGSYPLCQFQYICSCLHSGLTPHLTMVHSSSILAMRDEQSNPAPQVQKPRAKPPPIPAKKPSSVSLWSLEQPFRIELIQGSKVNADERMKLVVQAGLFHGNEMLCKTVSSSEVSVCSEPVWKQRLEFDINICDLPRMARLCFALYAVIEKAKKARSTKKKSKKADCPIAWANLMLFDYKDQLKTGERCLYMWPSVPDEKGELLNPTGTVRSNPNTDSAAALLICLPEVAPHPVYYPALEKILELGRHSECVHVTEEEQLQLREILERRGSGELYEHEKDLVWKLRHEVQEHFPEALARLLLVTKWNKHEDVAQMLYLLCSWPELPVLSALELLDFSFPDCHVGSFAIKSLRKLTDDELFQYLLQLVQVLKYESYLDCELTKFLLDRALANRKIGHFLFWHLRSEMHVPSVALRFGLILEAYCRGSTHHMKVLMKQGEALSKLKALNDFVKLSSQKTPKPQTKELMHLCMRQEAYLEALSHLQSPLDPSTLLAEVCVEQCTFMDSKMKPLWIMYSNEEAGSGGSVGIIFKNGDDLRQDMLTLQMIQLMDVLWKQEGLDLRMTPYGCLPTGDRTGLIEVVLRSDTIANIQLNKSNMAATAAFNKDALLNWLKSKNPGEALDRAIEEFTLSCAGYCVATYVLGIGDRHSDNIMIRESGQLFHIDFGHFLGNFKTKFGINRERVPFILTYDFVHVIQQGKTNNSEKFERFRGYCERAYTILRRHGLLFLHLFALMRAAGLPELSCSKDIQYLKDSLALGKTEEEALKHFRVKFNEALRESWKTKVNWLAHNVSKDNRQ

[4] = molecular target: Phosphatidylinositol 4,5-bisphosphate 3-kinase catalytic subunit gamma isoform (Homo sapiens, UniProt P48736)
Chain of Phosphatidylinositol 4,5-bisphosphate 3-kinase catalytic subunit gamma isoform (P48736 whole entry, canonical isoform): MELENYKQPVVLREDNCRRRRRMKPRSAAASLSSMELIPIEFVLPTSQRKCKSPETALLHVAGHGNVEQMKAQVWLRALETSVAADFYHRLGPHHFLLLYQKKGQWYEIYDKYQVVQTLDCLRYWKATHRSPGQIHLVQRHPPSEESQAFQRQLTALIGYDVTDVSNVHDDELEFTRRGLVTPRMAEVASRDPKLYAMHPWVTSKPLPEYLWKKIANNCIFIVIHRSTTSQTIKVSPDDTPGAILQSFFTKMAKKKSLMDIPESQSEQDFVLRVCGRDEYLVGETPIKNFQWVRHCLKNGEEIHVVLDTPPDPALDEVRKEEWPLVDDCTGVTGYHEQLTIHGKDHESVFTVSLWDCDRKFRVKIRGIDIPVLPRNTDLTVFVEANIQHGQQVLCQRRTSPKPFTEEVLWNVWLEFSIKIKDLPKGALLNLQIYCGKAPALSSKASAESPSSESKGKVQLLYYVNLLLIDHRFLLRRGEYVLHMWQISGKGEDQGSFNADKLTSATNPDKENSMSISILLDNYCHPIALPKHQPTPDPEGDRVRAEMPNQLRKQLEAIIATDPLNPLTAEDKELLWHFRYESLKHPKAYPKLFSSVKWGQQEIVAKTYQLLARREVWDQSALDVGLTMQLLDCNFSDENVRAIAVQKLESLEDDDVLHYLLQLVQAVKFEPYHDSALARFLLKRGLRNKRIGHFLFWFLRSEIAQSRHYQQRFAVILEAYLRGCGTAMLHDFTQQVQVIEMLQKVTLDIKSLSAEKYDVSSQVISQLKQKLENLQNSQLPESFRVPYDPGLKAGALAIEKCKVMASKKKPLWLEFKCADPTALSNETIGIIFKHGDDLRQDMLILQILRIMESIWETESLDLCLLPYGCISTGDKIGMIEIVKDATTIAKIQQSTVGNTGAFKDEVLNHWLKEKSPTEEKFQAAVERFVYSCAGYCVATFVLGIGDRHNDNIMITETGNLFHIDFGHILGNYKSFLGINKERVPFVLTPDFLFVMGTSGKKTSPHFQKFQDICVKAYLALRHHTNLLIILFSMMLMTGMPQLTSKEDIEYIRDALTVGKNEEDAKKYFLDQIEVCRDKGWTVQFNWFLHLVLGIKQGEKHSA

Measured: IC50

Chain of Phosphatidylinositol 4,5-bisphosphate 3-kinase catalytic subunit beta isoform (P42338 whole entry, canonical isoform): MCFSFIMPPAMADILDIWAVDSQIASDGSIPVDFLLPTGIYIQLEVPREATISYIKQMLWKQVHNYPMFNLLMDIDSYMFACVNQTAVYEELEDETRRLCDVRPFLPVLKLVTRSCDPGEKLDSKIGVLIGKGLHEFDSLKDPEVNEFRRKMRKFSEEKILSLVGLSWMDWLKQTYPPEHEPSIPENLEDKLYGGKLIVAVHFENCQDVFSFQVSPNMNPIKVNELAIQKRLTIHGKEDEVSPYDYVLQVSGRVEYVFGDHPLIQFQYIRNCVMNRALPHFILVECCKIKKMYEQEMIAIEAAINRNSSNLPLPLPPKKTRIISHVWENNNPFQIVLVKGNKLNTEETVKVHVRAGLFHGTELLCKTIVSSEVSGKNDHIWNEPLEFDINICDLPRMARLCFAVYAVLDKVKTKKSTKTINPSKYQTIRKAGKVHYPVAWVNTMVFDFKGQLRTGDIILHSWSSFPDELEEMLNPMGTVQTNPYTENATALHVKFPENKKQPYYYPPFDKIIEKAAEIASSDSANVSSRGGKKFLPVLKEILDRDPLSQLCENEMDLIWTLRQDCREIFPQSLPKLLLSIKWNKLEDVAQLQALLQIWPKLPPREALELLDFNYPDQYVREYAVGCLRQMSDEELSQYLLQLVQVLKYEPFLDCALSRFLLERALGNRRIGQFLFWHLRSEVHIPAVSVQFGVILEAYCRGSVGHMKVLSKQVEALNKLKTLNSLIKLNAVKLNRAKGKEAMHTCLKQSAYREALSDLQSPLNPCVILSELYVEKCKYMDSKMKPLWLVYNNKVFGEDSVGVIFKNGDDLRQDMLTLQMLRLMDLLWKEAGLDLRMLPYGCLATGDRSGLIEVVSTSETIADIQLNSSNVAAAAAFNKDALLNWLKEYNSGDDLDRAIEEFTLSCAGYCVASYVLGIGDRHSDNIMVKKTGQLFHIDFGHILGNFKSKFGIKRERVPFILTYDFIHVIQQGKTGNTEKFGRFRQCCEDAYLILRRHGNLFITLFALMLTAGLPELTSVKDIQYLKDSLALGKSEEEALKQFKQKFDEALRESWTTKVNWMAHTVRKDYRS
Chain of Phosphatidylinositol 4,5-bisphosphate 3-kinase catalytic subunit alpha isoform (P42336 whole entry, canonical isoform): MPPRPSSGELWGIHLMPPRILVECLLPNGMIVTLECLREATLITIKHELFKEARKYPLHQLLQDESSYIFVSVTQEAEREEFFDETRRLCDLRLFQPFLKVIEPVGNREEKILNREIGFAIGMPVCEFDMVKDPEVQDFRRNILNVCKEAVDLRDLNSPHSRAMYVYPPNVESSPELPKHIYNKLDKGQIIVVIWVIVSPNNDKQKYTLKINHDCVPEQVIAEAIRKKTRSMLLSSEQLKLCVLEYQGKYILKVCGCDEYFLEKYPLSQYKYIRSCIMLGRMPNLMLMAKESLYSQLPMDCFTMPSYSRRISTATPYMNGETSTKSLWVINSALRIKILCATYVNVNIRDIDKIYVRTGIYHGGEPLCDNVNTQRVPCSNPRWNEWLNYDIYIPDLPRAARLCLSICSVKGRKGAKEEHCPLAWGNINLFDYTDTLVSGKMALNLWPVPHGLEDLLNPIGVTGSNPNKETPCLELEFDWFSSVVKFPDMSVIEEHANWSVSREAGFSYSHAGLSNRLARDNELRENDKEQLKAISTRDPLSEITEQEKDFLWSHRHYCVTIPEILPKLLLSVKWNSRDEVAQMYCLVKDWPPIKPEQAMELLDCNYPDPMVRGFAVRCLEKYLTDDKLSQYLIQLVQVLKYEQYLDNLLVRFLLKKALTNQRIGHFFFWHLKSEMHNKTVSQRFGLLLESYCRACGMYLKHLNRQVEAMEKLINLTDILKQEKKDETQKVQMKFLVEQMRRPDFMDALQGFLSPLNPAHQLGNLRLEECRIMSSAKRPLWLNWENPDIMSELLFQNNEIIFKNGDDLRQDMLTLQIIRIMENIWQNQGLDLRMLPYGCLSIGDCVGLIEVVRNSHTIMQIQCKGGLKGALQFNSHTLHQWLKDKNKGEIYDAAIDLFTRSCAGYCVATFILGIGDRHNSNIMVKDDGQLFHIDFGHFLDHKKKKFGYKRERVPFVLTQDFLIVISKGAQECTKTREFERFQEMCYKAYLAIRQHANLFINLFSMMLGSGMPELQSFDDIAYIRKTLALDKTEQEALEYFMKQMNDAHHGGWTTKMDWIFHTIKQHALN

C[C@H]1CN(c2cnc3ccc(-c4cccc5c(N)nsc45)cc3n2)CCN1 [US11547697, Compound 321]
> 10 µM: all assays above

C[C@H]1CN(c2cnc3cccc(-c4ccc5oc(N)nc5c4)c3n2)CCN1 [US11547697, Compound 342]
> 10 µM: all assays above

Cc1c(-c2ccc3oc(N)nc3c2)ccc2ncc(C(=O)N3CCOCC3)n12 [US11547697, Compound 349]
> 10 µM: all assays above

Cc1cc2oc(N)nc2cc1-c1ccc2ncc(C(=O)N3CCOCC3)n2c1 [US11547697, Compound 352]
> 10 µM: all assays above

Cc1c(-c2ccc3ncc(N4CC(N5CCOCC5)C4)nc3c2)ccc2oc(N)nc12 [US11547697, Compound 362]
> 10 µM: all assays above

C[C@H]1CN(c2cnc3ccc(-c4cccc5c(N)noc45)cc3n2)CCN1 [US11547697, Compound 363]
> 10 µM: all assays above

Cc1c(-c2ccc3ncc(C(=O)N4CCOCC4)n3c2)ccc2oc(N)nc12 [US11547697, Compound 369]
> 10 µM: all assays above

CC(C)N1CCN(c2cnc3ccc(-c4ccc5oc(N)nc5c4)cc3n2)C(=O)C1 [US11547697, Compound 392]
> 10 µM: all assays above

C[C@H]1CN(c2cnc3scc(-c4ccc5oc(N)nc5c4)c3c2)CCN1 [US11547697, Compound 399]
> 10 µM: all assays above

Nc1nc2cc(-c3nc4cc(-c5cccnc5)cnc4s3)ccc2o1 [US11547697, Compound 402]
> 10 µM: all assays above

Nc1nc2cc(-c3ccc4nc(N)c(N5CC(N6CCOCC6)C5)nc4c3)ccc2o1 [US11547697, Compound 404]
> 10 µM: all assays above

CS(=O)(=O)Nc1nc2cc(-c3ccc4ncc(C(=O)N5CCOCC5)n4c3)ccc2o1 [US11547697, Compound 405]
> 10 µM: all assays above

CN1CCC(Nc2nc3cc(-c4ccc5ncc(C(=O)N6CCOCC6)n5c4)ccc3o2)CC1 [US11547697, Compound 408]
> 10 µM: all assays above

CC(=O)n1nc(N)c2ccc(-c3ccc4oc(N)nc4c3)cc21 [US11547697, Compound 426]
> 10 µM: all assays above

Nc1nc2cc(-c3ccc4[nH]nc(N)c4c3)ccc2o1 [US11547697, Compound 427]
> 10 µM: all assays above

COc1ccc(CNc2n[nH]c3cc(-c4ccc5oc(N)nc5c4)ccc23)cc1 [US11547697, Compound 429]
> 10 µM: all assays above

CC(=O)Nc1n[nH]c2ccc(-c3ccc4oc(N)nc4c3)cc12 [US11547697, Compound 431]
> 10 µM: all assays above

O=C(c1cnc2ccc(-c3cccc(S(=O)(=O)Nc4ccccc4)c3)cn12)N1CCOCC1 [US11547697, Compound 440]
> 10 µM: all assays above

O=C(c1cnc2ccc(-c3cccc(S(=O)(=O)Nc4cc(F)ccc4F)c3)cn12)N1CCOCC1 [US11547697, Compound 441]
> 10 µM: all assays above

CNS(=O)(=O)c1cccc(-c2ccc3ncc(C(=O)N4CCOCC4)n3c2)c1 [US11547697, Compound 442]
> 10 µM: all assays above

CS(=O)(=O)Nc1cccc(-c2ccc3ncc(C(=O)N4CCOCC4)n3c2)c1 [US11547697, Compound 443]
> 10 µM: all assays above

CNS(=O)(=O)c1cc(-c2ccc3ncc(C(=O)N4CCOCC4)n3c2)ccc1OC [US11547697, Compound 445]
> 10 µM: all assays above

COc1ccc(-c2ccc3ncc(C(=O)N4CCOCC4)n3c2)cc1NS(C)(=O)=O [US11547697, Compound 456]
> 10 µM: all assays above

Nc1n[nH]c2cc(-c3ccc4ncc(C(=O)N5CCOCC5)n4c3)ccc12 [US11547697, Compound 487]
> 10 µM: all assays above

Nc1noc2cc(-c3ccc4ncc(C(=O)N5CCOCC5)n4c3)ccc12 [US11547697, Compound 488]
> 10 µM: all assays above

Nc1n[nH]c2c(-c3ccc4ncc(C(=O)N5CCOCC5)n4c3)cccc12 [US11547697, Compound 490]
> 10 µM: all assays above

Nc1noc2c(-c3ccc4ncc(C(=O)N5CCOCC5)n4c3)cccc12 [US11547697, Compound 491]
> 10 µM: all assays above

O=C(c1cnc2ccc(-c3ccc4c(Nc5ccccc5)nsc4c3)cn12)N1CCOCC1 [US11547697, Compound 505]
> 10 µM: all assays above

Cc1cc2ncc(C(=O)N3CCOCC3)n2cc1-c1ccc2oc(N)nc2c1 [US11547697, Compound 507]
> 10 µM: all assays above

O=C(c1cnc2ccc(-c3ccc4c(Nc5ccccc5)noc4c3)cn12)N1CCOCC1 [US11547697, Compound 509]
> 10 µM: all assays above

CC(C)N1CCC(n2cnc3ccc(-c4cncc(NS(C)(=O)=O)c4)cc3c2=O)CC1 [US11547697, Compound 520]
> 10 µM: all assays above
